Read-outs that look alike come from different tables or passages of the source.
Experiments:
Type in all cases: cell-based
[1] = test system: herpes simplex virus type 1 (KOS strain); experiment: Control of CPE (cytopathic effect) manifestation in vero cells; settings: 30 μg/ml, HSV-1 (KOS), Example 7; for Cytopathic effect [CPE] (3days) △CPE / Cytopathic effect [CPE] (5days) △CPE: difference from control
Method: (§1) Vero cells cultured and grown in a monolayer on microplates to test for cytopathic effect due to viral infection, with solutions of Compound A diluted to varying ratios and solutions of virus diluted to varying ratios added severally thereto in a volume of 0.1 ml, were cultured under the conditions of 5% CO₂ and 37°C and were examined for CPE manifestation under a microscope. The observation was continued for five to six days.
(§2) The degree of CPE brought about by viral infection was rated on the five-point scale, wherein 3 stands for CPE observed on not less than 75% of cultured cells, 2 for CPE observed on 50% of cultured cells, 1 for CPE observed on 25% of cultured cells, 0.5 for occurrence of one to two extremely minute DPE spots, and 0 for perfect absence of recognizable CPE. The CPE scores obtained at the four holes in each microplate were averaged and the difference of the average from the average obtained in the control (omitting the treatment with a chemical) was reported as ΔCPE.
(§3) Antiviral activity of Compound A and Compound B against herpes simplex virus type 1 (KOS strain) The test was carried out by following the procedure of Example 3.

[2] = test system: herpes simplex virus type 1 (HF strain); experiment: 50% Tissue culture infective dose (TCID50), Read-Munch method, negative logarithm of virus dilution
Method: (§4) In vitro antiviral activity of Compound A against herpes simplex virus type 1 (HF strain) Compound A was tested for antiviral effect by the following two methods.
(§5) The amount of virus infecting 50% of tissues (TCID₅₀) was determined by the Read-Munch method and expressed in negative logarithm of the maximum radio of dilution of virus. The difference of the amount thus determined from the amount found in the control (omitting the treatment with a chemical) was reported as ΔTCID₅₀. A sample whose ΔCPE's found on the last day of observation and on each of the days spent for the observation exceeded 1.0 was evaluated as effective.
(§6) In vitro antiviral effect of Compound A against herpes simplex virus type 1 (HF strain) The test was carried out by following the procedure of Example 3.

[3] = test system: herpes simplex virus type 1 (HF strain); experiment: Control of CPE (cytopathic effect) manifestation in vero cells; set-up: key to Cytopathic effect [CPE] (3days) Average / Cytopathic effect [CPE] (5days) Average / Cytopathic effect [CPE] (6days) Average: CPE score: 0 none, 0.5 minute spots, 1 = 25%, 2 = 50%, 3 = ≥75% cells; key to Cytopathic effect [CPE] (3days) △CPE / Cytopathic effect [CPE] (5days) △CPE / Cytopathic effect [CPE] (3days) ΔCPE / Cytopathic effect [CPE] (6days) ΔCPE: ΔCPE = difference of average CPE score (0–3 scale) from control; settings: 20 μg/ml, HSV-1 (HF strain), Example 5; for Cytopathic effect [CPE] (3days) ΔCPE / Cytopathic effect [CPE] (6days) ΔCPE: difference from control
Method: as §4, §1, §2, §6

[4] = test system: herpes simplex virus type 1 (KOS strain); experiment: 50% Tissue culture infective dose (TCID50), Read-Munch method, negative logarithm of virus dilution; set-up: key to Cytopathic effect [CPE] (5days) TCID50 / Cytopathic effect [CPE] (3days) TCID50: TCID50 as negative log of maximum virus dilution ratio
Method: as §5, §3

[5] = test system: herpes simplex virus type 2 (169 strain); experiment: Control of CPE (cytopathic effect) manifestation in vero cells; set-up: key to Cytopathic effect [CPE] (3days) Average / Cytopathic effect [CPE] (5days) Average / Cytopathic effect [CPE] (6days) Average: CPE score 0-3: 3 = ≥75% cells, 2 = 50%, 1 = 25%, 0 = none; key to Cytopathic effect [CPE] (3days) △CPE / Cytopathic effect [CPE] (5days) △CPE / Cytopathic effect [CPE] (6days) △CPE: difference of mean CPE score (0-3 scale) from untreated control; settings: 20 μg/ml, HSV-2 (169), Example 6; for Cytopathic effect [CPE] (3days) △CPE / Cytopathic effect [CPE] (6days) △CPE: difference from control
Method: as §1, §2
(§7) In vitro antiviral activity of Compound A against herpes simplex virus type 2 (169 strain) The test was carried out by following the procedure of Example 3.

[6] = test system: herpes simplex virus type 2 (169 strain); experiment: 50% Tissue culture infective dose (TCID50), Read-Munch method, negative logarithm of virus dilution; set-up: key to Cytopathic effect [CPE] (5days) △TCID50 / Cytopathic effect [CPE] (6days) △TCID50 / Cytopathic effect [CPE] (3days) △TCID50: difference in -log TCID50 from untreated control; key to Cytopathic effect [CPE] (5days) TCID50 / Cytopathic effect [CPE] (3days) TCID50 / Cytopathic effect [CPE] (6days) TCID50: negative log of maximum virus dilution infecting 50% of tissues; settings: HSV-2 (169), Example 6
Method: as §5, §7

[7] = test system: herpes simplex virus type 1 (KOS strain); experiment: One-step growth of virus, plaque assay with vero cells; settings: 30 μg/ml, 24 hours; for log reduction at 30 µg/mL / inhibition at 30 µg/mL: Human alphaherpesvirus 1, Vero; for log reduction at 30 µg/mL: read-out: Intracellular virus Control ratio -logT/C; for inhibition at 30 µg/mL: read-out: Intracellular virus Control ratio %
Method: Antiviral activity of Compound A and Compound B against one-step growth of herpes simplex virus type 1 (KOS strain) Cells grown in a monolayer, with a sample of a given compound diluted in a varying ratio added, were pretreated for 15 minutes. Then, the pretreated cells were infected with the herpes simplex virus type 1 (KOS strain) at an infecting ratio of 0.25 and left standing for 24 hours. At the end of the standing, the intracellular and extracellular amounts of virus were determined by the plaque assay with vero cells.

[8] = 20 μg/ml, HSV-1 (HF strain), Example 5
[9] = Human alphaherpesvirus 1, 72 h, read-out: Cytopathic effect [CPE] (3days) ΔTCID50
[10] = Human alphaherpesvirus 1, 144 h, read-out: Cytopathic effect [CPE] (6days) ΔTCID50
[11] = 30 μg/ml, HSV-1 (KOS), Example 7

| SMILES | Cytopathic effect [CPE] (3days) Average [1] | Cytopathic effect [CPE] (5days) Average [1] | Cytopathic effect [CPE] (3days) △CPE [1] | Cytopathic effect [CPE] (5days) △CPE [1] | Cytopathic effect [CPE] (3days) TCID50 [2, 8] | Cytopathic effect [CPE] (6days) TCID50 [2, 8] | log reduction at 20 µg/mL [2, 9] | log reduction at 20 µg/mL [2, 10] | Cytopathic effect [CPE] (3days) Average [3] | Cytopathic effect [CPE] (6days) Average [3] | Cytopathic effect [CPE] (3days) ΔCPE [3] | Cytopathic effect [CPE] (6days) ΔCPE [3] | Cytopathic effect [CPE] (3days) TCID50 [4, 11] | Cytopathic effect [CPE] (5days) TCID50 [4, 11] | Cytopathic effect [CPE] (3days) Average [5] | Cytopathic effect [CPE] (6days) Average [5] | Cytopathic effect [CPE] (3days) △CPE [5] | Cytopathic effect [CPE] (6days) △CPE [5] | Cytopathic effect [CPE] (3days) TCID50 ([6]; 20 μg/ml) | Cytopathic effect [CPE] (6days) TCID50 ([6]; 20 μg/ml) | other results |
| --- | --- | --- | --- | --- | --- | --- | --- | --- | --- | --- | --- | --- | --- | --- | --- | --- | --- | --- | --- | --- | --- |
| Nc1ncnc2c1ncn2[C@@H]1O[C@H](CO)[C@@H](O)[C@@H]1O [Ara A, adenine arabinoside, reference compound] | 1.0 | 2.0 | 1.0 | 1.0 | 6.5 | 6.5 | -0.2 | -0.2 | 2.5 | 3.0 | 0.25 | 0 | 5.0 | 5.7 | 0.5 | 3.0 | 1.0 | 0 | 7.0 | 7.5 | Cytopathic effect [CPE] (6days) ΔTCID50 ([2]; 20 μg/ml, HSV-1 (HF strain), Example 5, difference from control): no discernible antiviral effect; log reduction at 30 µg/mL ([4]; Human alphaherpesvirus 1, 72 h, read-out: Cytopathic effect [CPE] (3days) △TCID50): 0.5; log reduction at 30 µg/mL ([4]; Human alphaherpesvirus 1, 120 h, read-out: Cytopathic effect [CPE] (5days) △TCID50): 0.3; Cytopathic effect [CPE] (6days) △TCID50 ([6]; 20 μg/ml, difference from control): nil; log reduction at 20 µg/mL ([6]; Human alphaherpesvirus 2, 72 h, read-out: Cytopathic effect [CPE] (3days) △TCID50, 20 μg/ml, difference from control): -0.3; log reduction at 20 µg/mL ([6]; Human alphaherpesvirus 2, 144 h, read-out: Cytopathic effect [CPE] (6days) △TCID50, 20 μg/ml, difference from control): -0.8; Intracellular virus Average ([7]; extracellular virus): 3.93×10^3 /dish; Intracellular virus Average [7]: 7.38×10^4 /dish; log reduction at 30 µg/mL ([7]; 24 h, extracellular virus): 3.88; log reduction at 30 µg/mL ([7]; 24 h): 4.74; inhibition at 30 µg/mL [7]: > 99.9% |
| O=c1[nH]c(=O)n([C@H]2C[C@H](O)[C@@H](CO)O2)cc1I [IDU, reference compound] | 1.0 | 2.0 | 1.0 | 1.0 | 6.3 | 6.5 | 0 | -0.2 | 2.25 | 3.0 | 0.5 | 0 | 5.3 | 6.0 | 0.75 | 1.25 | 1.75 | 1.75 | 5.3 | 5.5 | log reduction at 30 µg/mL ([4]; Human alphaherpesvirus 1, 72 h, 30 μg/ml, HSV-1 (KOS), Example 7, difference from control, read-out: Cytopathic effect [CPE] (3days) △TCID50): 0.2; log reduction at 30 µg/mL ([4]; Human alphaherpesvirus 1, 120 h, 30 μg/ml, HSV-1 (KOS), Example 7, difference from control, read-out: Cytopathic effect [CPE] (5days) △TCID50): 0.3; log reduction at 20 µg/mL ([6]; Human alphaherpesvirus 2, 72 h, 20 μg/ml, difference from control, read-out: Cytopathic effect [CPE] (3days) △TCID50): 1.4; Intracellular virus Average ([7]; extracellular virus): 7.50×10^3 /dish; Intracellular virus Average [7]: 1.00×10^6 /dish; inhibition at 30 µg/mL ([7]; 24 h, extracellular virus): > 99.9%; log reduction at 30 µg/mL ([7]; 24 h, extracellular virus): 3.6; inhibition at 30 µg/mL ([7]; 24 h): 99.8%; log reduction at 30 µg/mL ([7]; 24 h): 2.61 |
